Assay results taken from PubChem BioAssay (NCI).
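All cell lines were grown in 96-well plates and treated with compound for 48 hours. TGI is the concentration that stops growth completely.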

Key:
Assay in all cases: NCI tumour cell line growth inhibition, 48 h
HOP-62 NSCLC = test system: HOP-62 NSCLC
SK-MEL-5 melanoma = test system: SK-MEL-5 melanoma
SK-MEL-28 melanoma = test system: SK-MEL-28 melanoma
SN12C renal = test system: SN12C renal
PC-3 prostate = test system: PC-3 prostate
IGROV1 ovarian = test system: IGROV1 ovarian
A549 NSCLC = test system: A549 NSCLC
MDA-N = test system: MDA-N
CCRF-CEM leukemia = test system: CCRF-CEM leukemia
UACC-62 melanoma = test system: UACC-62 melanoma
CAKI-1 renal = test system: CAKI-1 renal
HCC-2998 colon = test system: HCC-2998 colon
SF-268 CNS = test system: SF-268 CNS
UACC-257 melanoma = test system: UACC-257 melanoma
SF-539 CNS = test system: SF-539 CNS
MDA-MB-231 breast = test system: MDA-MB-231 breast
UO-31 renal = test system: UO-31 renal

Row | Structure (SMILES) | TGI (HOP-62 NSCLC) [µM] | TGI (SK-MEL-5 melanoma) [µM] | TGI (SK-MEL-28 melanoma) [µM] | TGI (SN12C renal) [µM] | TGI (PC-3 prostate) [µM] | TGI (IGROV1 ovarian) [µM] | TGI (A549 NSCLC) [µM] | TGI (MDA-N) [µM] | TGI (CCRF-CEM leukemia) [µM] | TGI (UACC-62 melanoma) [µM] | TGI (CAKI-1 renal) [µM] | TGI (HCC-2998 colon) [µM] | TGI (SF-268 CNS) [µM] | TGI (UACC-257 melanoma) [µM] | TGI (SF-539 CNS) [µM] | TGI (MDA-MB-231 breast) [µM] | TGI (UO-31 renal) [µM]
1 | N#Cc1ccc(C2ON=C(c3ccccc3)N2C23CC4CC(CC(C4)C2)C3)cc1 (stereo not given) | > 10 | > 10 | > 10 | > 10 | > 10 | > 10 | > 10 | > 10 | > 10 | > 10 | > 10 | > 10 | > 10 | > 10 | > 10 | > 10 | 
2 | COC(=O)CN(CC(=O)NCCNC(=O)OC(C)(C)C)C1CCCCC1N(CC(=O)OC)CC(=O)OC (stereo not given) | > 100 | > 100 | > 100 | > 100 | > 100 | > 100 | > 100 | > 100 | > 100 | > 100 | > 100 | > 100 | > 100 | > 100 | > 100 | > 100 | > 100
3 | NC1CCN(c2nc3ccccc3c3c2CCCC3)CC1 | 35.1 | 7.01 | 10.6 | 21.5 | 20.4 | 19.5 | 23.5 | 9.6 | 15.2 | 3.8 | 19.1 | 3.2 | 33 | 4.31 | 11.8 | 12.8 | 12.2
4 | Cc1nc2ccc(Cl)cc2c2c1CCN2c1ccc(F)cc1 | > 100 | 21.6 | 75.7 | > 100 | > 100 | 72.7 | > 100 | > 100 | > 100 | 87.4 | > 100 | > 100 | > 100 | 49.6 | 54.8 | 81.3 | > 100
5 | O=C(NCCCCCCCCNC(=O)Nc1cccc2ccccc12)Nc1cccc2ccccc12 | 50.6 | > 100 | > 100 | 59.3 | > 100 | > 100 | > 100 | > 100 | 48.7 | > 100 | > 100 | > 100 | 45.8 | > 100 | 24.6 | 23.3 | 47.5
6 | CCCCCCCCCCC/C=C(/C(=O)CCCO[Si](C)(C)C(C)(C)C)C(=O)OC | > 100 | > 100 | > 100 | > 100 | > 100 | > 100 |  | > 100 | > 100 | > 100 | > 100 | > 100 | > 100 | > 100 | > 100 | > 100 | > 100
7 | C[C@]12CC[C@H]3[C@@H](CC=C4C[C@@H](O)CC[C@@]43C)[C@@H]1C/C(=C\c1ccncc1)[C@@H]2O | > 100 | 21.1 | 51.3 | 34.8 | 43 | 73.5 | 61.3 | 54.4 | 50.8 | 30.7 | 57.4 | > 100 | 54.4 | 40.4 | 45.9 | 99.2 | > 100
8 | O=c1c2ccccc2n2c(-c3ccccc3O)nnc2n1-c1ccccc1 | > 100 | > 100 | > 100 | > 100 | > 100 | > 100 | > 100 | > 100 | > 100 | > 100 | > 100 | > 100 | > 100 | > 100 | > 100 | > 100 | 5.72
9 | O=C(/C=C/c1ccc([N+](=O)[O-])cc1)N1CCN(CCOC(c2ccc(F)cc2)c2ccc(F)cc2)CC1 | > 100 | > 100 | > 100 | > 100 | > 100 | > 100 | > 100 | > 100 | > 100 | > 100 | > 100 | > 100 | > 100 | > 100 | > 100 | > 100 | 96.4
10 | NC(=O)c1ncn(C2C=CC(CP(=O)(O)O)C2)c1N (stereo not given) | > 100 | > 100 | > 100 | > 100 | > 100 | > 100 | > 100 | > 100 | > 100 | > 100 | > 100 | > 100 | > 100 | > 100 | > 100 | > 100 | > 100
11 | FC(F)(F)c1ccc2c(-c3cc[nH]c3)ccnc2c1 | > 100 | 43.3 | > 100 | > 100 | > 100 | > 100 | 75 | > 100 | > 100 | > 100 | 94 | > 100 |  | > 100 | > 100 | > 100 | 48.3
12 | CC(=O)NC1=NC(=O)/C(=C/c2ccccc2Cl)N1C | > 100 | > 100 | > 100 | > 100 | > 100 | > 100 | > 100 | > 100 | > 100 | > 100 | > 100 | > 100 | > 100 | > 100 | > 100 | > 100 | > 100
13 | COc1c(Sc2c(SCSc3cnc4ccccc4c3Sc3cnc4ccccc4c3OC)cnc3ccccc23)cnc2ccccc12 | > 100 | > 100 | > 100 | > 100 | > 100 | > 100 | > 100 | > 100 | > 100 | > 100 | > 100 | > 100 | > 100 | > 100 | > 100 | > 100 | > 100
14 | CCOC(=O)C1=C(C(=O)OCC)SC2(S1)C(C(=O)OCC)=C(C(=O)OCC)Sc1c2ssc1=O | 3.21 | 5.29 | 3.93 | 2.48 | 2.96 | 2.57 | 5.38 | 4.36 | 2.06 | 3.68 | 5.15 | 5.89 | 4.19 | 3.1 | 2.4 | 3.88 | 3.25
